{"source": "patent US10251876B2", "about": "“Method for treating tumour, pharmaceutical composition and medicinal kit” (CHIA TAI TIANQING PHARMACEUTICAL GROUP CO., LTD., priority 2014, dated 2019)", "key": {"[1]": {"system": "malignant tumor patients", "experiment": "Preliminary and overall therapeutic effect in malignant tumor patients", "format": "in vivo, human", "details": "continuous administration for two weeks and rest for one week", "experimental": "The malignant tumor patients those were diagnosed definitely and had failed standard treatment or lacking standard treatment were recruited for phase I study of tolerance and preliminary therapeutic effect. The tolerance was observed when patients were administered 5 mg or 10 mg of the capsules of dihydrochloride of Compound I once daily respectively for at least 2 cycles continuously, wherein each cycle was 28 days.\nAfter the adjustment of the dosage regimen, the malignant tumor patients those were diagnosed definitely and had failed standard treatment or lacking standard treatment were recruited, continuous administrating for 2 weeks and resting for 1 week were applied, i.e., 3 weeks (21 days) was a treatment cycle, and the observation of tolerance was continuously performed and maintained at least 2 cycles (42 days), and the observation of therapeutic effects was performed at the same time."}, "[2]": {"experiment": "Pharmacokinetics of single administration in solid tumour subjects", "format": "in vivo", "details": "human, plasma, single oral administration", "experimental": "(§1) All the solid tumour subjects participating in the tolerance research in Example 3 were performed a monitor of plasma concentration to evaluate pharmacokinetic parameters of the capsule of Compound I dihydrochloride. • (1) Pharmacokinetics of Single Administration\nAfter beginning the tests, the qualified subjects took the capsule of Compound I dihydrochloride once and performed pharmacokinetic studies of single administration."}, "[3]": {"experiment": "Pharmacokinetics of continuous administration (2 weeks, rest 1 week) in solid tumour subjects", "format": "in vivo", "details": "human, plasma, oral", "experimental": "as §1\nThe qualified subjects took the drug once and performed pharmacokinetic monitor of single administration. After subjecting to at least 7 days of a washout period, pharmacokinetic studies of continuous administration were performed. One treating cycle has continuous administration for 2 weeks and rest for 1 week, and continuous monitor were applied for at least 2 cycles. A total of 21 subjects in 3 dose groups (10 mg, 16 mg and 12 mg, respectively) continuously took the capsules of Compound I dihydrochloride, while performing the monitor of plasma concentration."}}, "note": "Where a name gives a salt, the structure may show the parent alone. Read-outs that look alike come from different tables or passages of the source.", "data": [{"compound": "COc1cc2c(Oc3ccc4[nH]c(C)cc4c3F)ccnc2cc1OCC1(N)CC1", "note": "[Compound I dihydrochloride, 1-[[[4-(4-fluoro-2-methyl-1H-indol-5-yl)oxy-6-methoxyquinolin-7-yl]oxy]methyl]cyclopropylamine dihydrochloride]", "values": [{"measurement": "therapeutic effects, overall", "setting": "[1]", "value": "various tumours can benefit"}]}, {"compound": "COc1cc2c(Oc3ccc4[nH]c(C)cc4c3F)ccnc2cc1OCC1(N)CC1", "note": "[Compound I, 1-[[[4-(4-fluoro-2-methyl-1H-indol-5-yl)oxy-6-methoxyquinolin-7-yl]oxy]methyl]cyclopropylamine]", "values": [{"measurement": "AUC(0-inf)", "setting": "[2]; 10 mg/person, n = 4, mean", "value": 570, "unit": "ng·h/mL"}, {"measurement": "AUC(0-t)", "setting": "[2]; 10 mg/person, n = 4, mean", "value": 327, "unit": "ng·h/mL"}, {"measurement": "Cmax", "setting": "[2]; 10 mg/person, n = 4, mean", "value": 6.07, "unit": "ng/mL"}, {"measurement": "MRT", "setting": "[2]; 10 mg/person, n = 4, mean", "value": 142, "unit": "h"}, {"measurement": "Tmax", "setting": "[2]; 10 mg/person, n = 4, mean", "value": 6.75, "unit": "h"}, {"measurement": "half-life", "setting": "[2]; 10 mg/person, n = 4, mean, read-out: t1/2 (converted)", "value": 3.7, "unit": "days"}, {"measurement": "AUC(0-inf)", "setting": "[2]; 12 mg/person, n = 11, mean", "value": 1160, "unit": "ng·h/mL"}, {"measurement": "AUC(0-t)", "setting": "[2]; 12 mg/person, n = 11, mean", "value": 938, "unit": "ng·h/mL"}, {"measurement": "Cmax", "setting": "[2]; 12 mg/person, n = 11, mean", "value": 11.3, "unit": "ng/mL"}, {"measurement": "MRT", "setting": "[2]; 12 mg/person, n = 11, mean", "value": 162, "unit": "h"}, {"measurement": "Tmax", "setting": "[2]; 12 mg/person, n = 11, mean", "value": 8.73, "unit": "h"}, {"measurement": "half-life", "setting": "[2]; 12 mg/person, n = 11, mean, read-out: t1/2 (converted)", "value": 3.83, "unit": "days"}, {"measurement": "AUC(0-inf)", "setting": "[2]; 16 mg/person, n = 4, mean", "value": 1720, "unit": "ng·h/mL"}, {"measurement": "AUC(0-t)", "setting": "[2]; 16 mg/person, n = 4, mean", "value": 1330, "unit": "ng·h/mL"}, {"measurement": "Cmax", "setting": "[2]; 16 mg/person, n = 4, mean", "value": 16.1, "unit": "ng/mL"}, {"measurement": "MRT", "setting": "[2]; 16 mg/person, n = 4, mean", "value": 163, "unit": "h"}, {"measurement": "Tmax", "setting": "[2]; 16 mg/person, n = 4, mean", "value": 10, "unit": "h"}, {"measurement": "half-life", "setting": "[2]; 16 mg/person, n = 4, mean, read-out: t1/2 (converted)", "value": 4.03, "unit": "days"}, {"measurement": "half-life", "setting": "[2]; read-out: half-life period (t1/2)", "value": "3.33 to 4.17", "unit": "days"}, {"measurement": "Cmax", "setting": "[3]; 10 mg/person, n = 3, average (RSD %)", "value": 64.9, "unit": "ng/mL"}, {"measurement": "Cmax", "setting": "[3]; 12 mg/person, n = 15, average (RSD %)", "value": 67, "unit": "ng/mL"}, {"measurement": "Cmax", "setting": "[3]; 16 mg/person, n = 3, average (RSD %)", "value": 93.1, "unit": "ng/mL"}]}]}
